Assay results reported in patent US7253177B2, “Synthesis and antimalarial activity of pyrrolo[3,2-f]quinazoline-1,3-diamine derivatives” (United States of America as Represented by the Secretary of …, priority 2004, dated 2007).
Several values for one entry are separate records, joined by “and”; a condition that tells them apart may be missing. Equal entries are not always repeated.

Test system: P. cynomolgi sporozoites
Test: Presumptive causal prophylactic test against P. cynomolgi in Rhesus monkey
Format: in vivo, Plasmodium cynomolgi
Conditions: for protection compared with untreated control: oral 3 mg/kg, 3 mg/kg
Description: (e). Toxicity Study in Aotus monkey: Protocol: Two malaria double cured Aotus weighing 1027-695 grams respectively received single dose of 3 mg/kg orally of the two compounds 2b and 3e. The monkeys were weighed and pre-bleed for CBC and Chemistry (ALT, BUN, Creatinine) determination, and again three, seven and 15 days post treatment. Signs of toxicity such as anorexia, vomiting, diarrhea or behavior changes were recorded. […] (f). Antimalarial Activity against P. falciparum in Aotus monkey: Protocol: Six (6) malaria naive Aotus lemurinus lemurinus (weigh 787-978 grms) were divided into two groups of two Aotus each plus two controls (MN13177 male and MN 13153 male) and infected with 5×10^6 P. falciparum FVO malaria parasites with 1 ml of an appropriate dilution in RPMI media intravenously on the saphenous vein. When their parasitemia reached 5×10^4 parasites/ul, treatment was started. Giemsa-stained thick blood smears were prepared daily with a prick in the ear marginal vein and parasites enumerated by the Earle and Perez method. Group 1 Aotus received 3e at 1 mg/kg once a day×three days. Group 2 Aotus received 2b at 1 mg/kg once a day×three days. The monkeys were weight and pre-bled for CBC and Chemistry (ALT, BUN, Creatinine) determination, and on day 4 post-treatmetne (PT). Bleedings for Pk determinations were carried out on day 1 PT at time 0, 1 hr, 7:30 hr and 24 hr PT. Group 1 (receiving 3e) animals cleared the parasitemias on day 3 post treatment (PT) and remained negative up to 100 days PT. In group 2 (receiving 2b), one animal cleared on day 3 PT and the other one on day 4 PT remaining negative up to 100 days PT. […] (g). Antimalarial Activity against P. vivax in Aotus monkey: Protocol: Fourteen (14) P. falciparum cured Aotus l. lemurinus monkeys (male and female) (weight 700-925 grms) were infected intravenously with 5×10^6 parasites of the P. vivax AMRU-1 strain diluted in RPMI media obtained from a donor and divided into two larger groups of 6 monkeys each (Group I and Group II) (2 monkeys per dose level), that received 3e and 6 monkeys (2 monkeys per dose level) that received 2b daily at 0.5, 1.0 and 3 mg/kg/day for a total of 3 days. Two monkeys were left has untreated controls. Treatment started when parasitemia reached 5,000 parasites×cc/mm on day 6 PI. Daily food intake was documented. Daily Giemsa-stained thick blood smears were prepared from a prick in the marginal ear vein and parasites enumerated by the Earle and Perez method. The animals were weighed at weekly intervals. Blood samples for Pk determination were collected at the following time points as follows: Day 0: CBC and chemistry panel (ALT. Creatinine and BUN); Day 4: CBC and chemistry Panel. CBC and chemistry panels were done the day prior to first dose and 24 hours after last dose and at weekly intervals thereafter. […] The other monkeys received 1 and 3 mg/kg of 3e remained negative until day 100 PT. In Group II, all monkeys except for one that received 3 mg/kg of 2b failed treatment and were retreated on day 3 PT with 3e at either 0.25, 0.5 or 1 mg/kg for three days. In the monkeys that received re-treatment at 0.25 mg/kg, one cleared on day 4 PT but needed to be treated with Mefloquine on day 8 PT due to a low platelet count. The other animals that had not been cleared by day 6 PT were treated with Mefloquine. […] P. vivax is known to be very drug resistant to antifolates. (h). Presumptive Causal Prophylactic Test against P. cynomolgi in Rhesus monkey: Protocol:
(1). Type of study: This study is causal prophylactic test. Six Rhesus monkeys weighing 3-4 kg were randomized to 2 control animals and 2 groups of 2 experimental animals each.
(2). Donor monkey: A donor monkey was inoculated intravenously with 1.3 mL freshly-thawed frozen infected red blood cell. When the monkey developed gametocytemia, mosquito feedings were conducted on days 13 and 14 after inoculation. […]

Row | SMILES | comparative protection activity (P. cynomolgi) | day of parasitemia development after sporozoite challenge (oral 1 mg/kg on days -1, 0, 1, control day 8, listed as WR288830) | protection compared with untreated control | day of parasitemia development after sporozoite challenge (oral 1 mg/kg on days -1, 0, 1, control day 8) | day of parasitemia development after sporozoite challenge (oral 3 mg/kg on days -1, 0, 1, control day 8) [days]
1 | CCOC(=O)Nc1nc(NC(=O)OCC)c2c(ccc3c2ccn3Cc2ccccc2C(F)(F)F)n1 [Compound 2b] | better protection activity than 3e | 9 days and 15 days | 8 days and 15 days | – | –
2 | CC(=O)N(C(C)=O)c1nc(N(C(C)=O)C(C)=O)c2c(ccc3c2ccn3Cc2ccccc2C(F)(F)F)n1 [Compound 3e, 1,3-Bis(diacetylamino)-7-(2-trifluoromethyl)benzyl-7H-pyrrolo[3,2-f]quinazoline] | – | – | 7 days | 8 days and 11 days | 15
